pIC50: −log10 of the molar value. Read-outs that look alike come from different tables or passages of the source.
Experiments:
[1] = target: T1, CCKB receptor (guinea pig cerebral cortex) (Cavia porcellus, UniProt H0VZC5); assay: 125I-CCK-8 receptor binding assay, CCKB; settings: guinea pig cerebral cortex membranes; for IC50: Table 2, read-out: Activity CCK-B [μM] (IC50); for pIC50: 125I-Bolton-Hunter CCK 25 pM, read-out: CCKB
T1 construct: CCKB (nM); other: guinea pig cerebral cortex membranes, 125I-Bolton-Hunter CCK 25 pM; Activity CCK-B [μM]; guinea pig cerebral cortex membranes
T1 sequence (H0VZC5 1-426): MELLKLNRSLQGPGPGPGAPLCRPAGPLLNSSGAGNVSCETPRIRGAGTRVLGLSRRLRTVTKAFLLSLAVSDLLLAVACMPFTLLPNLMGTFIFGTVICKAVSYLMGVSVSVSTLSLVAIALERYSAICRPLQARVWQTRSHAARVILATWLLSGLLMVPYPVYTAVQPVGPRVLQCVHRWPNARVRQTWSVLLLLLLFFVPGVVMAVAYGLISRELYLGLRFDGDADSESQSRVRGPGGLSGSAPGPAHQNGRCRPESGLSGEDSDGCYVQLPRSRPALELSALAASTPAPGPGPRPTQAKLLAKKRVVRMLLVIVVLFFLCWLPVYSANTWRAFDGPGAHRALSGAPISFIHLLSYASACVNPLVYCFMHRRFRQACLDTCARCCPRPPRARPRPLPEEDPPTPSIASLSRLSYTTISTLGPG
Experimental: (§1) CCKA and CCKB receptor binding assays were performed, by using guinea pig cerebral cortex (CCKB) or rat pancreas (CCKA). Male guinea pig brain tissues were prepared according to the modified method described by Saita et al, [(1994), Characterization of YM022: its CCKB/gastrin receptor binding profile and antagonism to CCK-8-induced Ca2+mobilization., Eur. J. Pharmacol.,269, 249-254]. Pancreatic membranes were prepared in a similar way but by Charpentier et al, [(1988), Cyclic cholecystokinin analogues with high selectivity for central receptors., Proc Natl Acad Sci USA, 85, 1968-1972]. The […] CCK binding assay: Tissues were homogenized in ice cold sucrose (0.32 M, 25 ml) for 15 strokes at 500 rpm and centrifuged at 13000 rpm for 10 mins. The supernatant was re-centrifuged at 13000 rpm for 20 mins. The resulting pellet was re-dispersed to the required volume of buffer at 500 rpm and stored in aliquots at […].
(§2) Binding was achieved using a radioligand ^125I-Bolton-Hunter labeled CCK, NEN at 25 pM. The samples were incubated {with membranes (0.1 mg/ml) } in 20 mM Hepes, 1 mM EGTA, 5 mM MgCl2, 150 mm NaCl, 0.25 mg/ml bacitracin at pH 6.5 for 2 hrs at RT and then […] by centrifugation at 1100 rpm for 5 minutes. The membrane pellets were washed twice with water and the bound radioactivity was measured in a Packard Cobra Auto-gamma counter (B5005). All binding assays were carried out with L-363, 260 as an internal non-specific standard. Controls (no compound) were also added. All samples were made in duplicate and repeated twice. All compounds were initially screened for percentage inhibition at 20 μm. Samples showing an average inhibition of <35% were diluted to 2 μm and re-screened and if active diluted again.

[2] = target: T2, CCKA receptor (rat pancreas) (Rattus norvegicus, UniProt P30551); assay: 125I-CCK-8 receptor binding assay, CCKA; settings: rat pancreas membranes, 125I-Bolton-Hunter CCK 25 pM
T2 construct: Pancreatic membranes were prepared in a similar way but by Charpentier et al; from tissue; host or cells: rat pancreas membranes
T2 sequence (P30551 1-444): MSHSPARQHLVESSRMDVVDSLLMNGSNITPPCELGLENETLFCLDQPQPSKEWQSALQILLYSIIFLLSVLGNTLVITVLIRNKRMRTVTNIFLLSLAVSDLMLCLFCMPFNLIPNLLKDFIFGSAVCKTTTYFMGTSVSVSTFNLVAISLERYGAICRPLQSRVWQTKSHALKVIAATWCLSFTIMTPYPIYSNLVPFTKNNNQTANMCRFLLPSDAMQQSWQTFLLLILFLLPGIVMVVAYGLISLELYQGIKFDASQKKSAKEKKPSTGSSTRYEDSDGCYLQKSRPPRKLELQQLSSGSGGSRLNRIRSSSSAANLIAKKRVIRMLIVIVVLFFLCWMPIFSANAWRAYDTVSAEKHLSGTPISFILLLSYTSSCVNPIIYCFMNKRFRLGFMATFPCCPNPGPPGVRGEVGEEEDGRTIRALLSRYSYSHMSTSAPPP
Experimental: as §1, §2

[3] = test system: CCKB receptor (guinea pig cerebral cortex); assay: 125I-CCK-8 receptor binding assay, CCKB; settings: ratio CCKB/CCKA
Experimental: as §1, §2

Row | SMILES | IC50 [1] | further results
1 | C#CCOC1OC(=O)C(Cl)=C1N1CCN(Cc2ccccc2)CC1 (stereo not drawn) [Example 5, 4-(4-Benzylpiperazin-1-yl) 3-chloro-5-(prop-2-ynyloxy)furan-2(5H)-one] | > 20 µM | 
2 | COC1OC(=O)C(Cl)=C1N1CCC(c2ccccc2)CC1 (stereo not drawn) [Example A8B11] | 3 µM | 
3 | C#CCOC1OC(=O)C(Cl)=C1N1C(C)CNCC1C (stereo not drawn) [Example A3B20] | 11.2 µM | 
4 | COC1OC(=O)C(Cl)=C1n1cnc2ccccc21 (stereo not drawn) [Example A8B3] | 2.3 µM | 
5 | CCCCCCNC1=C(Cl)C(=O)OC1OC (stereo not drawn) [Example 15, 3-Chloro-4-(hexylamino)-5-methoxyfuran-2(5H)-one] |  | pIC50 [2]: 8.10; Selectivity [3]: 1.5; pIC50 [1]: 7.92
6 | CC(C)CNC1=C(Cl)C(=O)OC1c1ccccc1 (stereo not drawn) [Example 17, 3-Chloro-4-(isobutylamino)-5-phenyl furan-2(5H)-one] |  | pIC50 [2]: 8.15; Selectivity [3]: 1.6; pIC50 [1]: 7.96
7 | CCN(C1=C(Cl)C(=O)OC1CC(=O)c1ccc(Cl)cc1)c1cccc(C)c1 (stereo not drawn) [Example 16, 3-Chloro-5-[2-(4-chlorophenyl)-2-oxoethyl]-4-(ethyl-3-methylanilino) furan-2(5H)-one] |  | pIC50 [2]: 8.10; Selectivity [3]: 2.3; pIC50 [1]: 7.72
8 | CCCCCCCCCCCCCCCCOC1OC(=O)C(Cl)=C1N1CCN(C(=O)OCC)CC1 (stereo not drawn) [Example A7B24] | 12.4 µM | 
9 | COC1OC(=O)C(Cl)=C1NCCCN1CCOCC1 (stereo not drawn) [Example A8B17] | 15 µM | 
10 | COC1OC(=O)C(Cl)=C1Nc1cccc(C)c1 (stereo not drawn) [Example A8B4] | 2.5 µM | 
11 | CC1CCC(C(C)C)C(OC2OC(=O)C(Cl)=C2N(C)Cc2ccccc2)C1 (stereo not drawn) [Example 1, 4-[Benzyl(metliyl)arino]-3-chloro-5-[(2-isopropyl-5-methlylcyclohexyl)oxo] furan-2(5H)-one] | 0.31 µM | 
12 | CC1CCC(C(C)C)C(OC2OC(=O)C(Cl)=C2N2CCCC2)C1 (stereo not drawn) [Example A1B9] | 2.2 µM | 
13 | C#CCOC1OC(=O)C(Cl)=C1N1CC(C)OC(C)C1 (stereo not drawn) [Example 3, 3-Chloro-4-(2,6-dimethylmorpholin-4-yl)-5-(prop-2-ynyloxy)furan-2(5H)-one] | 12.6 µM | 
14 | COC1OC(=O)C(Cl)=C1NC1CCC(CCCc2ccccc2)CC1 (stereo not drawn) [Example A8B25] | 16 µM | 
15 | C#CCOC1OC(=O)C(Cl)=C1NCc1ccccc1 (stereo not drawn) [Example 4, 4-(Benzylamino)-3-chloro-5-(prop-2-ynyloxy)furan-2(5H)-one] |  | pIC50 [2]: 8.05; Selectivity [3]: 1.5; pIC50 [1]: 7.85
16 | CC(=O)OC1OC(=O)C(Cl)=C1N1CCc2ccccc21 (stereo not drawn) [Example 2, 4-ClIforo-3-(2,3-dihydro-1H-indol-1-yl)-5-oxo-2,5-dihydrofuran-2-yl acetate] | > 20 µM | 

Row | SMILES | IC50 [1] | further results
17 | CCCCCCCCCCCCNC1=C(Cl)C(=O)OC1OC (stereo not drawn) [Example A8B10] | 2.5 µM | 
18 | CC(C)OC1OC(=O)C(Cl)=C1NCc1ccccc1Cl (stereo not drawn) [Example 11, 3-Chloro-4-[(2-chlorobenzyl)amino]-5-isopropoxy-4-2(SH)-oue] | 0.95 µM | 
19 | CCCCCCCCCCCCCCCCOC1OC(=O)C(Cl)=C1n1cc(C)cc1C (stereo not drawn) [Example A7B23] | 0.86 µM | 
20 | COC1OC(=O)C(Cl)=C1N1CCN(Cc2ccccc2)CC1 (stereo not drawn) [Example A8B16] | 16 µM | 
21 | COC1OC(=O)C(Cl)=C1Nc1c(C)n(C)n(-c2ccccc2)c1=O (stereo not drawn) [Example 14] | 18 µM | 
22 | CCC(C)NC1=C(Cl)C(=O)OC1OC (stereo not drawn) [Example A8B5] | 1.2 µM | 
23 | COC1OC(=O)C(Cl)=C1N1CCN(c2ccccc2)CC1 (stereo not drawn) [Example A8B8] | 14 µM | 
24 | COC1OC(=O)C(Cl)=C1n1ccc(C)n1 (stereo not drawn) [Example A8B26] | 11 µM | 
25 | COC1OC(=O)C(Cl)=C1N1CCc2ccccc21 (stereo not drawn) [Example A8B2] | 1.5 µM | 
26 | O=C1OC(Cl)C(Nc2ccccc2)=C1Cl (stereo not drawn) [Example 8, 4-Anilino-3,5-dichlorofuran-2(5H)-one] | 16 µM | 
27 | CC(C)OC1OC(=O)C(Cl)=C1N1CCc2ccccc21 (stereo not drawn) [Example 9, 3-Chloro-4-(2,3-dihydro-1H-indol-1-yl)-5-isopropoxy-2(5H)-one] | 2.5 µM | 
28 | CC(C)OC1OC(=O)C(Cl)=C1N(Cc1ccccc1)Cc1ccccc1 (stereo not drawn) [Example 12, 3-Chloro-4-(dibenzylamino)-5-isopropoxyfuran-2(5H)-one] | 17 µM | 
29 | CC(C)OC1OC(=O)C(Cl)=C1NCCc1ccccc1 (stereo not drawn) [Example 13, 3-Chloro-5-isopropoxy-4-(phenethylamine)furan-2(5H)-one] | 1.1 µM | 
30 | CC(C)OC1OC(=O)C(Cl)=C1N(C)Cc1ccccc1 (stereo not drawn) [Example 10, 4-[Benzyl(methyl)amino]-3-chloro-5-isopropoxyfuran-2(5H)-one] | 12 µM | 
31 | C=COC1OC(=O)C(Cl)=C1Nc1c(C)n(C)n(-c2ccccc2)c1=O (stereo not drawn) [Example 7, 3-Chloro-4-[(1,5-dimethyl-2-phenyl-1,3-dihydro-3H-pyrazol-3-one)amino]-5-(vinyloxy)furan-2(5H)-one] | 3.3 µM | 
32 | C#CCOC1OC(=O)C(Cl)=C1N(C(C)C)C1CCCCC1 (stereo not drawn) [Example 6, 3-Chloro-4-[cyclohexyl(isopropyl)amino]-5-(prop-2-ynyloxy)furan-2(5H)-one] |  | pIC50 [2]: 8.22; Selectivity [3]: 1.3; pIC50 [1]: 8.10
